{
  "source": "patent US10279046B2",
  "about": "“Eye drop composition for treating ocular inflammatory disease and preparation method therefor” (CATHOLIC UNIVERSITY INDUSTRY-ACADEMIC COOPERATION FOUNDATION, priority 2013, dated 2019)",
  "tested_on": "corneal damage model (alkali burn)",
  "assay": "Corneal damage model (alkali burn) with NaOH: corneal edema and inflammatory cells (hematoxylin-eosin and F4/80 staining)",
  "assay_type": "in vivo, rat (Sprague Dawley)",
  "conditions": "0.1 mg/ml (0.01%) sulfasalazine, twice a day",
  "procedure": "A white […] (Sprague Dawley, 300 g, male) was used as an animal, and a corneal damage model (alkali burn) due to a chemical drug using NaOH was used. A paper disk of 3 mm was dipped in a 0.1 N NaOH solution (50 ul), and the cornea was covered with the paper disk for 30 seconds to induce the cornea to be damaged. The inflammation reaction in the cornea was confirmed by performing hematoxylin eosin staining and immunostaining on the F4/80 antigen. The analysis of corneal edema was performed using a ratio of corneal epithelium and corneal stroma.\nAfter the damage to the cornea, the solubilized sulfasalazine and the sulfasalazine-hyaluronic acid eye drop prepared in the Example 1 were administered twice a day, respectively. 0.1% hyaluronic acid was administered to the control group.\nThree days after the damage to the cornea, the eyeball was removed and a paraffin block was prepared to make a tissue slice, and the hematoxylineosin staining and the immunostaining on the F4/80 antigen as a macrophage marker were performed.\nThe analysis on the inflammatory cells was performed with respect to the number of macrophages (F4/80 positive cells) present in the cornea.",
  "data": [
    {"smiles": "O=C(O)c1cc(/N=N/c2ccc(S(=O)(=O)Nc3ccccn3)cc2)ccc1O", "note": "[sulfasalazine solution, sulfasalazine]", "values": [
      {"measurement": "number of macrophages (F4/80 positive cells) present in the cornea", "setting": "after inducement of inflammation 31.5±4.9", "value": "21.3±5.5"},
      {"measurement": "ratio of corneal epithelium and stroma (corneal edema)", "setting": "three days after damage, normal 4.6±1, after inducement of inflammation 10±2.5", "value": "7.1±2.1"}
    ]}
  ]
}
